Assay results as given in the NIST ThermoML archive (doi:10.1016/j.jct.2017.09.022).

Assay: molar heat capacity at constant pressure
Conditions: 101.33 kPa, Crystal, Small (less than 1 g) adiabatic calorimetry

C[C@@H](O)[C@H](N)C(=O)O [L-threonine]
Conditions	molar heat capacity at constant pressure [J/K/mol]
145.26 K	88.8
146.21 K	89.13
147.15 K	89.63
148.1 K	90.13
149.05 K	90.63
150 K	90.96
150.93 K	91.38
151.88 K	91.87
152.83 K	92.21
153.78 K	92.79
154.71 K	93.21
155.66 K	93.7
156.61 K	94.2
157.55 K	94.54
158.5 K	94.87
159.44 K	95.37
160 K	95.62
160.38 K	95.7
161.33 K	96.12
162.27 K	96.7
163.21 K	97.03
164.16 K	97.53
165.1 K	98.03
166.02 K	98.36
166.96 K	98.78
167.9 K	99.11
168.84 K	99.69
169.78 K	100.02
170 K	100.19
170.72 K	100.44
171.66 K	100.85
172.6 K	101.27
173.54 K	101.6
174.48 K	102.1
175.42 K	102.6
176.34 K	103.02
177.28 K	103.43
178.21 K	103.76
179.15 K	104.35
180 K	104.6
180.08 K	104.6
180.99 K	104.93
181.93 K	105.34
182.86 K	105.84
183.79 K	106.34
184.73 K	106.67
185.66 K	107.09
186.59 K	107.51
187.52 K	107.92
188.45 K	108.25
189.38 K	108.75
190 K	109
190.32 K	109.09
191.25 K	109.5
192.18 K	110
193.1 K	110.25
194.03 K	110.67
194.96 K	111.08
195.86 K	111.5
196.79 K	111.83
197.72 K	112.33
198.65 K	112.66
199.57 K	112.99
200 K	113.33
200.62 K	113.49
201.78 K	114.07
202.93 K	114.57
204.09 K	115.07
205.25 K	115.65
206.41 K	116.15
207.57 K	116.57
208.73 K	117.07
209.9 K	117.57
210 K	117.57
211.06 K	118.07
212.23 K	118.65
213.35 K	119.06
214.52 K	119.56
215.69 K	119.98
216.86 K	120.48
218.03 K	120.89
219.2 K	121.47
220 K	121.81
220.37 K	121.97
221.54 K	122.56
222.71 K	122.97
223.89 K	123.47
225.06 K	123.97
226.24 K	124.55
227.41 K	125.05
228.59 K	125.47
229.77 K	125.96
230 K	126.13
230.95 K	126.38
232.1 K	126.96
233.28 K	127.54
234.46 K	128.29
235.64 K	128.62
236.82 K	129.04
238 K	129.62
239.18 K	130.04
240 K	130.37
240.37 K	130.54
241.55 K	131.04
242.74 K	131.45
243.92 K	132.03
245.11 K	132.53
246.3 K	132.95
247.49 K	133.61
248.68 K	134.03
249.87 K	134.53
250 K	134.69
251.05 K	134.94
252.25 K	135.36
253.44 K	135.86
254.64 K	136.69
255.83 K	137.11
257.02 K	137.94
258.22 K	138.44
259.42 K	138.77
260 K	138.93
260.62 K	139.27
261.82 K	139.85
263.02 K	140.35
264.22 K	140.68
265.42 K	141.43
266.63 K	142.01
267.84 K	142.43
269.05 K	142.93
270 K	143.26
270.25 K	143.34
271.46 K	144.09
272.67 K	144.42
273.88 K	145.17
275.09 K	145.5
276.3 K	145.92
277.52 K	146.42
278.73 K	146.83
279.95 K	147.5
280 K	147.58
281.17 K	147.91
282.39 K	148.5
283.61 K	149
284.84 K	149.49
286.06 K	149.99
287.29 K	150.57
288.48 K	151.16
289.71 K	151.74
290 K	151.82
290.94 K	152.24
292.17 K	152.65
293.4 K	153.57
294.63 K	153.65
295.86 K	154.4
297.1 K	154.82
298.15 K	155.31
298.33 K	155.4
299.57 K	155.98
300 K	155.98
301.28 K	156.31
303.43 K	157.14
305.56 K	157.97
307.69 K	158.56
309.8 K	159.55
310 K	159.55
311.9 K	160.3
313.99 K	161.13
316.05 K	161.88
318.12 K	162.8
320 K	163.46
320.16 K	163.55
322.2 K	164.21
324.22 K	164.88
326.23 K	165.71
328.22 K	166.29
330 K	166.87
330.18 K	166.95
332.14 K	167.54
333.96 K	168.2
335.89 K	168.95
337.81 K	169.7
339.72 K	170.36
340 K	170.61
341.6 K	171.28
343.43 K	172.36
345.28 K	172.77
347.12 K	173.69
348.93 K	174.44
350 K	174.94
350.73 K	175.19
352.45 K	175.85
354.22 K	176.68
355.96 K	177.35
357.68 K	177.93
359.39 K	178.59
360 K	178.76
361.08 K	179.26
362.43 K	179.59
364.01 K	180.17
365.64 K	180.84
367.26 K	181.17
368.85 K	181.84
370 K	182.25
370.42 K	182.5
371.97 K	182.83
